Data as given in article PMC4279406, “Simultaneous targeting of PI3Kδ and a PI3Kδ-dependent MEK1/2-Erk1/2 pathway for therapy in pediatric B-cell acute lymphoblastic leukemia” (Oncotarget, 2014).

Assays:
[1] = test system: SU-DHL-6 cells; assay: Signaling by Western blot; assay type: cell-based, human
Protocol: (§1) Raji and SU-DHL-6 cells were treated with X-370 for 1 h (left panel) or treated with 0.5 μM X-370 for indicated times (middle panel). Right panel, Raji cells were incubated in fresh medium following treatment with 0.5 μM X-370 for 1 h. Indicated proteins were detected. (B) Raji-R (the rituximab-resistant derivatives of Raji cells) cells were resistant to X-370. The activity of X-370 on the proliferation of Raji parent and Raji-R cells was determined by CCK-8 assay as described in the methods section. (C) X-370 blocked phosphorylation of Akt but not Erk1/2 in Raji-R cells. Raji-R cells were treated with X-370 for 1h and indicated proteins were detected. Data shown are representative from three independent experiments.
(§2) Figure 5 Inhibition of Erk1/2 phosphorylation by X-370 contributed to its antiproliferative activity (A-C) X-370 inhibited Erk1/2 phosphorylation via PI3K-PDK1-MEK1/2 cascade but not the PI3K-Gab1 positive feedback loop. (A) Raji and SU-DHL-6 cells were exposed to 1 μM X370 for 3 h and protein fraction from cellular membrane was separated using Native Membrane Protein Extraction Kit and probed. WCL: whole cell lysate. (B) Inhibition of PDK1 or MEK1/2 abrogated Erk1/2 phosphorylation. Cells were treated with pharmacological inhibitors of Raf (AZ 628, PLX4032), MEK1/2 (AZD6244), p90RSK (BI-D1870), PI3Kδ (X-370), PDK1 (BX-912), Akt (MK-2206), mTOR (AZD8055) or mTORC1 (Rapamycin) respectively and indicated proteins were detected. (C) X-370 disrupted the association between PDK1 and MEK1/2. Raji cells were treated with 1 μM X370 for 1 h and cell lysates were immunoprecipitated with anti-PDK1 antibody and indicated proteins were detected. WCL: whole cell lysate. (D-F) Inhibition of Erk1/2 phosphorylation was required for the anti-proliferative activity of X-370. (D) Raji cells ectopically expressing a constitutively activated phospho-mimic MEK1 mutant (MEK1 […] or MEK DD) were incubated with X-370 or AZD6244 for 1 h and then subjected to Western blot. (E) Raji and Raji MEK DD cells were treated with X-370 for 72 h and cell proliferation was detected by CCK-8 assay. (F) Raji MEK DD cells were treated with X-370 and AZD6244 and cell proliferation was detected by CCK-8 assay. Data were show as mean ± SD of three independent experiments. *: p < 0.05 determined by t-tests at each data point. […]
(§3) Cells were treated as indicated conditions and then subjected to lysate to perform standard Western blot as described previously1. Briefly, whole-cell lysates and SDS-loading buffer diluted cell fractions were analyzed on SDS-PAGE gels. Transfer to nitrocellulose membranes, nonfat milk blocking, probing with indicated primary antibodies and the corresponding HRP-conjugated second antibodies.
(§4) Chemiluminescence were performed and captured using ImageQuant LAS 4000 (GE healthcare Life Sciences, Piscataway, NJ, USA) and band intensity was measure both with ImageQuant™ TL (GE Healthcare Life Sciences) 2. […]
(§5) (also on this page, place not known: PI3Kδ -dependent MEK1/2 - B -cell previously 1. whole -cell SDS -loading SDS -PAGE HRP -conjugated (G E A B Val828 Trp760 Thr750 Met752 Tyr813 affinity pocket specificity pocket hinge Glu826 CAL-101 X-370) […]
(§6) (1 picture or pasted object on this page, not shown here)

[2] = test system: Raji cells; assay: Signaling by Western blot; assay type: cell-based, human; settings: Raji
Protocol: as §1, §2, §3, §4, §5, §6

[3] = test system: PI3Kδ (M-CSF-stimulated THP-1 monocytes); assay: M-CSF-induced Akt phosphorylation in THP-1 cells; assay type: cell-based; settings: at 10 nM; M-CSF 50 ng/ml
Protocol: In fibroblasts, signals from the insulin-like growth factor 1 (IGF-1) receptor are mediated by PI3Kα, while lysophosphatidic acid (LPA) stimulates G-protein coupled receptor (GPCR) signals via PI3Kβ[26]. After being pre-incubated with X-370, murine embryonic fibroblasts cultured in serum-free medium were stimulated with IGF-1 or LPA. […] Either PI3Kδ or PI3Kγ can be activated in THP-1 monocytes dependent on the stimulating ligand, among which macrophage colony stimulating factor (M-CSF/CSF-1) activates RTK-coupled PI3Kδ, while monocyte chemoattractant protein-1 (MCP-1) activates PI3Kγ [24]. Accordingly, THP-1 cells cultured in serum-free medium were stimulated with MCP-1 or M-CSF in the presence of X-370 and phosphorylated Akt was measured.
Cell lysates were probed with indicated antibodies. The IC50 values were calculated based on relative band intensity measured with ImageQuant™ TL (GE Healthcare Life Sciences, Piscataway, NJ) (B). Data shown are mean values from three independent experiments. (C, D, E, F) X-370 blocked stimuli-triggered PI3Kδ activation. MEF cells and THP-1 were starved in serum-free medium for 12 h or 4 h respectively and X-370 were added for an additional 1 h treatment following stimulation of IGF-1 at 100 ng/ml for MEF cells (C), LPA at 10 μM for MEF cells (D), MCP-1 at 100ng/ml for THP-1 (E) and M-CSF at 50 ng/ml for THP-1 (F). […]

O=C(N1CCCC1)N1CCC(n2cnc3c(-n4c(C(F)F)nc5ccccc54)nc(N4CCOCC4)nc32)CC1 [X-370]
phosphorylation of Erk1/2 at T202/Y204 ([1]; SU-DHL-6): decreased in lockstep with inactivation of Akt | phosphorylation of Akt at the membrane ([1]; SU-DHL-6, 1 μM, 3 h, membrane fraction): abolished | concentration as low as which Akt phosphorylation was significantly reduced ([1]; SU-DHL-6, 1 h): 5 nM | reversibility of action on PI3K and Erk1/2 after compound removal ([1]; SU-DHL-6, 0.5 μM 1 h then drug-free medium, restoration after 15 minutes to 1 h): rapidly reversible | phosphorylation of Erk1/2 at T202/Y204 [2]: decreased in lockstep with inactivation of Akt | phosphorylation of MEK1/2 at Ser217/221 ([2]; 1 μM, 1 h): inhibited | phosphorylation of Akt at the membrane ([2]; 1 μM, 3 h, membrane fraction): abolished | concentration as low as which Akt phosphorylation was significantly reduced ([2]; 1 h): 5 nM | reversibility of action on PI3K and Erk1/2 after compound removal ([2]; 0.5 μM 1 h then drug-free medium, restoration after 15 minutes to 1 h): rapidly reversible | M-CSF-induced Akt phosphorylation [3]: completely blocked
